Source: the NIST ThermoML archive (doi:10.1016/j.jct.2012.01.023)
± gives the expanded uncertainty stated by the source.

What was measured:
[1] = for mass density: 298.1 K, 101.33 kPa, Liquid, Vibrating tube method; for surface tension liquid-gas: 298.15 K, Drop volume
[2] = xn = mol fraction of the nth substance listed; conditions: 298.15 K, Drop volume

CCOS(=O)(=O)[O-].CCn1cc[n+](C)c1 [1-ethyl-3-methylimidazolium ethyl sulfate]
[1]
Conditions | mass density [kg/m3] | surface tension liquid-gas [mN/m]
– | 1238.3 ± 1.1 | 47.13 ± 0.36

CCOS(=O)(=O)[O-].CCn1cc[n+](C)c1 [1-ethyl-3-methylimidazolium ethyl sulfate] + CCO
[2]
Conditions | surface tension liquid-gas [mN/m]
x1 = 0.0988 | 24.18 ± 0.25
x1 = 0.2056 | 26.37 ± 0.25
x1 = 0.3025 | 28.52 ± 0.26
x1 = 0.3989 | 30.68 ± 0.27
x1 = 0.4999 | 32.99 ± 0.28
x1 = 0.5984 | 35.4 ± 0.29
x1 = 0.703 | 38.12 ± 0.31
x1 = 0.8252 | 41.48 ± 0.33
x1 = 0.9048 | 43.81 ± 0.34
x1 = 1 | 47.16 ± 0.36

CCOS(=O)(=O)[O-].CCn1cc[n+](C)c1 [1-ethyl-3-methylimidazolium ethyl sulfate] + O
[2]
Conditions | surface tension liquid-gas [mN/m]
x1 = 0.005 | 67.23 ± 0.33
x1 = 0.0199 | 62.42 ± 0.31
x1 = 0.0402 | 59.68 ± 0.31
x1 = 0.06 | 57.64 ± 0.3
x1 = 0.1006 | 55.64 ± 0.3
x1 = 0.202 | 52.23 ± 0.3
x1 = 0.3017 | 50.45 ± 0.3
x1 = 0.4046 | 49.42 ± 0.31
x1 = 0.5026 | 48.79 ± 0.31
x1 = 0.6066 | 48.3 ± 0.32
x1 = 0.6957 | 47.94 ± 0.33
x1 = 0.7939 | 47.72 ± 0.34
x1 = 0.9041 | 47.39 ± 0.35
x1 = 1 | 47.16 ± 0.36

CCCCCCCCOS(=O)(=O)[O-].CCn1cc[n+](C)c1 [1-ethyl-3-methylimidazolium octyl sulfate]
[1]
Conditions | mass density [kg/m3] | surface tension liquid-gas [mN/m]
– | 1093.75 ± 1.4 | 31.29 ± 0.4

CCCCCCCCOS(=O)(=O)[O-].CCn1cc[n+](C)c1 [1-ethyl-3-methylimidazolium octyl sulfate] + CCO
[2]
Conditions | surface tension liquid-gas [mN/m]
x1 = 0.0399 | 22.89 ± 0.25
x1 = 0.0712 | 23.71 ± 0.25
x1 = 0.098 | 24.48 ± 0.25
x1 = 0.1595 | 25.82 ± 0.26
x1 = 0.215 | 26.62 ± 0.27
x1 = 0.2445 | 27.01 ± 0.27
x1 = 0.2985 | 27.64 ± 0.28
x1 = 0.3506 | 28.18 ± 0.28
x1 = 0.4002 | 28.61 ± 0.29
x1 = 0.4582 | 28.92 ± 0.3
x1 = 0.5059 | 29.14 ± 0.31
x1 = 0.6269 | 29.6 ± 0.33
x1 = 0.7387 | 29.96 ± 0.35
x1 = 0.8317 | 30.5 ± 0.36
x1 = 0.9164 | 30.8 ± 0.38
x1 = 0.9432 | 30.79 ± 0.39
x1 = 0.953 | 30.82 ± 0.39
x1 = 1 | 30.91 ± 0.4

CCCCCCCCOS(=O)(=O)[O-].CCn1cc[n+](C)c1 [1-ethyl-3-methylimidazolium octyl sulfate] + O
[2]
Conditions | surface tension liquid-gas [mN/m]
x1 = 0.0002 | 56.92 ± 0.85
x1 = 0.0007 | 42.45 ± 0.34
x1 = 0.005 | 37.84 ± 0.28
x1 = 0.011 | 37.19 ± 0.26
x1 = 0.0198 | 36.69 ± 0.26
x1 = 0.0349 | 35.3 ± 0.26
x1 = 0.0506 | 34.96 ± 0.26
x1 = 0.0774 | 33.87 ± 0.26
x1 = 0.0937 | 33.62 ± 0.26
x1 = 0.2846 | 31.01 ± 0.27
x1 = 0.4 | 30.48 ± 0.28
x1 = 0.5127 | 30.72 ± 0.3
x1 = 0.5677 | 30.67 ± 0.31
x1 = 0.6347 | 30.71 ± 0.32
x1 = 0.6934 | 30.74 ± 0.33
x1 = 0.7018 | 30.77 ± 0.34
x1 = 0.7373 | 30.7 ± 0.34
x1 = 0.766 | 30.81 ± 0.35
x1 = 0.8287 | 30.71 ± 0.36
x1 = 0.8904 | 30.79 ± 0.37
x1 = 1 | 30.91 ± 0.4

CCCCCCOS(=O)(=O)[O-].CC[n+]1ccn(C)c1 [3-ethyl-1-methyl-1H-imidazolium hexyl sulfate]
[1]
Conditions | mass density [kg/m3] | surface tension liquid-gas [mN/m]
– | 1129.6 ± 1.4 | 34.77 ± 0.43

CCCCCCOS(=O)(=O)[O-].CC[n+]1ccn(C)c1 [3-ethyl-1-methyl-1H-imidazolium hexyl sulfate] + CCO
[2]
Conditions | surface tension liquid-gas [mN/m]
x1 = 0.03 | 22.98 ± 0.25
x1 = 0.0679 | 23.87 ± 0.25
x1 = 0.0977 | 24.48 ± 0.25
x1 = 0.1253 | 25 ± 0.25
x1 = 0.2267 | 26.53 ± 0.27
x1 = 0.3138 | 27.69 ± 0.28
x1 = 0.386 | 28.6 ± 0.29
x1 = 0.4691 | 29.48 ± 0.3
x1 = 0.5946 | 30.86 ± 0.33
x1 = 0.7189 | 32.08 ± 0.36
x1 = 0.7951 | 32.84 ± 0.37
x1 = 0.9409 | 34.31 ± 0.41
x1 = 1 | 34.77 ± 0.43

CCCCCCOS(=O)(=O)[O-].CC[n+]1ccn(C)c1 [3-ethyl-1-methyl-1H-imidazolium hexyl sulfate] + O
[2]
Conditions | surface tension liquid-gas [mN/m]
x1 = 0.0005 | 62.58 ± 0.96
x1 = 0.0008 | 58.45 ± 0.83
x1 = 0.002 | 49.54 ± 0.9
x1 = 0.005 | 42.13 ± 0.56
x1 = 0.0196 | 40.27 ± 0.27
x1 = 0.0396 | 39.55 ± 0.27
x1 = 0.0602 | 38.88 ± 0.27
x1 = 0.0797 | 38.25 ± 0.27
x1 = 0.0997 | 37.79 ± 0.27
x1 = 0.1997 | 36.16 ± 0.28
x1 = 0.3009 | 35.59 ± 0.29
x1 = 0.4034 | 35.25 ± 0.3
x1 = 0.4957 | 35.05 ± 0.32
x1 = 0.5943 | 34.95 ± 0.34
x1 = 0.705 | 34.87 ± 0.36
x1 = 0.7893 | 34.82 ± 0.38
x1 = 0.8997 | 34.77 ± 0.41
x1 = 1 | 34.77 ± 0.43

CCCCOS(=O)(=O)[O-].CC[n+]1ccn(C)c1 [3-ethyl-1-methylimidazolium butyl sulfate]
[1]
Conditions | mass density [kg/m3] | surface tension liquid-gas [mN/m]
– | 1175.65 ± 1.5 | 39.64 ± 0.48

CCCCOS(=O)(=O)[O-].CC[n+]1ccn(C)c1 [3-ethyl-1-methylimidazolium butyl sulfate] + CCO
[2]
Conditions | surface tension liquid-gas [mN/m]
x1 = 0.066 | 23.6 ± 0.25
x1 = 0.1347 | 25.01 ± 0.26
x1 = 0.1536 | 25.36 ± 0.26
x1 = 0.2904 | 27.76 ± 0.28
x1 = 0.4691 | 30.63 ± 0.31
x1 = 0.4993 | 31.05 ± 0.32
x1 = 0.6866 | 33.99 ± 0.36
x1 = 0.7916 | 35.75 ± 0.4
x1 = 0.8794 | 37.35 ± 0.43
x1 = 1 | 39.62 ± 0.47

CCCCOS(=O)(=O)[O-].CC[n+]1ccn(C)c1 [3-ethyl-1-methylimidazolium butyl sulfate] + O
[2]
Conditions | surface tension liquid-gas [mN/m]
x1 = 0.0389 | 44.48 ± 0.35
x1 = 0.0403 | 45.93 ± 0.35
x1 = 0.0579 | 40.83 ± 0.28
x1 = 0.0602 | 41.7 ± 0.28
x1 = 0.0758 | 39.85 ± 0.27
x1 = 0.0805 | 39.96 ± 0.27
x1 = 0.0934 | 39.08 ± 0.27
x1 = 0.0987 | 39.17 ± 0.27
x1 = 0.1004 | 39.42 ± 0.27
x1 = 0.101 | 39.84 ± 0.28
x1 = 0.12 | 39.74 ± 0.27
x1 = 0.133 | 40.29 ± 0.28
x1 = 0.1464 | 40.85 ± 0.28
x1 = 0.1716 | 41.83 ± 0.29
x1 = 0.1947 | 41.59 ± 0.29
x1 = 0.2004 | 41.48 ± 0.29
x1 = 0.2585 | 40.83 ± 0.3
x1 = 0.2973 | 40.81 ± 0.3
x1 = 0.3957 | 40.04 ± 0.32
x1 = 0.4017 | 40.31 ± 0.32
x1 = 0.4764 | 39.93 ± 0.34
x1 = 0.4992 | 40.01 ± 0.34
x1 = 0.5868 | 39.89 ± 0.36
x1 = 0.703 | 39.82 ± 0.39
x1 = 0.7997 | 39.77 ± 0.42
x1 = 0.9034 | 39.67 ± 0.45
x1 = 1 | 39.62 ± 0.47

CCO [ethanol]
Conditions | surface tension liquid-gas [mN/m]
[1] | 22.01 ± 0.24

CCO [ethanol] + CCOS(=O)(=O)[O-].CCn1cc[n+](C)c1
Conditions | surface tension liquid-gas [mN/m]
[2], x2 = 0 | 22.01 ± 0.24

O [water]
Conditions | surface tension liquid-gas [mN/m]
[1] | 71.35 ± 0.33

O [water] + CCOS(=O)(=O)[O-].CCn1cc[n+](C)c1
Conditions | surface tension liquid-gas [mN/m]
[2], x2 = 0 | 71.35 ± 0.33
